Assay: binding preference from monorhamnolipid-metal conditional stability constants for 26 metals
Conditions: metals of environmental concern (e.g., Cd, Pd, Hg) versus common soil and water cations
Source text: They are considered “green” molecules due to their natural products from bacteria (e.g., Pseudomonas aeruginosa), biodegradability, and low toxicity. The present inventors have experimentally determined the monorhamnolipid-metal conditional stability constants ([…]) for 26 metals of interest.

## monorhamnolipid
  binding preference for metals of environmental concern over common soil and water cations: 6-8 orders of magnitude

— patent US20250051526A1, “POLYMERS COMPRISING GLYCOLIPIDS AND METHODS FOR PRODUCING AND USING THE SAME” (priority 2021, published 2025)
